Consider 13 compounds from article PMC12481249.

Read-outs that look alike come from different tables or passages of the source.

Assay [1] relates to MCF-7 Br Ca cell line. Briefly: MTT cytotoxicity (antiproliferative) assay.
Method: Cytotoxic activity evaluation
To measure the cytotoxic actvity of the synthesized naphthalen-1-yloxyacetamide
tethered acrlamide derivatives 5a-j and 6a,b in breast adenocarcinoma (MCF-7) cell line
(ATCC Cat. No. HTB-22). Cell viability assay was assessed using MTT assay method.
Cells at density of 1 x 104 were seeded in a 96-well plate at 37 °C for 24 h under 5%
CO2. After incubation, the cells were treated with different concentrations of the
investigated naphthalen-1-yloxyacetamide tethered acrlamide derivatives 5a-j and 6a,b
and incubated for 24 h, then 20 l of MTT solution at 5 mg/mL was applied and
incubated for 4 h at 37 °C. Dimethyl sulphoxide (DMSO) in volume of 100 µl was
added to each well to dissolve the purple formazan that had formed. The color intensity
of the formazan product, which represents the growth condition of the cells, is quantified
by using an ELISA plate reader (EXL 800, USA) at 570 nm absorbance. The experimental conditions were carried out with at least three replicates, and the experiments were repeated at least three times.
In assay [2] the target is T1, aromatase enzyme (Homo sapiens, UniProt P11511).
T1 construct: IC50 values against aromatase enzyme in MCF-7 Br Ca cells treated with; endogenous in cells; host or cells: MCF-7
T1 sequence (P11511 1-503): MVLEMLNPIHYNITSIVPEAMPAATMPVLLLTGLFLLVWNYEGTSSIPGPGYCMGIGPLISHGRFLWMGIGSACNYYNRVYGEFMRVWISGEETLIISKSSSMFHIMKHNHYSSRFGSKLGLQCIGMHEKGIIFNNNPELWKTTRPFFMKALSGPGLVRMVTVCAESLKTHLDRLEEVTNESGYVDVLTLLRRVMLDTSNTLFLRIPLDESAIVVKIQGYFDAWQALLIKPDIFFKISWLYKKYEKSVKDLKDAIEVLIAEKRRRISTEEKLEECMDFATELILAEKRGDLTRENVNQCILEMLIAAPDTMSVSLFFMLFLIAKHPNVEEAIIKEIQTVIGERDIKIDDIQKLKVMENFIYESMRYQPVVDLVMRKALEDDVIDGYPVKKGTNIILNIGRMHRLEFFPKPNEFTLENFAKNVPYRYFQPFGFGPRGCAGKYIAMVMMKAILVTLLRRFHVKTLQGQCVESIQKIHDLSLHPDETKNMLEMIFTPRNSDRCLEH
Put plainly: Aromatase inhibition assay (ELISA method kit). The assay is classed as biochemical. The conditions noted are these: five concentrations. For orientation: ELISA stands for enzyme-linked immunosorbent assay.

Assay [3] has as its system caspase 9. Briefly: Caspase 9 level assay in MCF-7 cells. The conditions noted are these: MCF-7, qRT-PCR technique (SI: ELISA kit), IC50 concentration. The assay is classed as cell-based. The text has this:
An essential initiator caspase in the intrinsic apoptotic process is caspase 9.[56] It is essential for inducing cell death in response to internal stress such as oxidative stress, DNA damage, or oncogene activation conditions, which are frequently present in cancer cells.[57] Therefore, therapeutic strategies that enhance or restore its activity can potentially overcome apoptosis resistance in tumors.[58] In this context, naphthalene-1-yloxyacetamide tethered acrylamide conjugate 5d were evaluated as caspase 9 activator against MCF-7 cells using qRT-PCR technique. […] It is worth mentioning that, the level of caspase 9 protein level is increased 8.2-fold more than the negative control.
Apoptosis in MCF-7 cells was investigated using fluorescent Annexin V-FITC/ PI detection kit (BioVision Annexin V-FITC Apoptosis Detection Kit, Catalog #: K101) by […]
(§1) Annexin V-FITC/ PI dye for 15 min in the dark at 37 °C. The samples were immediately analyzed using FACS Calibur flow cytometer (Becton and Dickinson, Heidelberg, […]
6. […]
(§2) Bcl-2, Bax and Caspase 9 activities in MCF-7 Br Ca cells were detected in the presence of conjugate 5d at the IC50 concentration (µM). The levels of anti-apoptotic marker Bcl-2, apoptotic markers Bax as well as Caspase 9 were assessed using appropriate ELISA kit. […]
(§3) with IC50 concentration of compound 5d. […] The samples were measured at 450 nm in ROBONEK P2000 ELISA reader. […]
(Real-time PCR tracks product formation cycle by cycle.)

Assay [4] deals with MCF-7 Br Ca cells. Briefly: DNA flow cytometry cell cycle analysis. The conditions noted are these: MCF-7, at the IC50 value for 48 h. The assay is classed as cell-based. The text has this:
It is frequently utilized in cell biology to comprehend growth regulation, cell proliferation and the impact of both drugs and genetic alterations on cellular division.[44] Recognizing and manipulating the phase at which cell cycle arrest occurs can improve the therapeutic efficacy and selectivity of chemotherapeutic drugs, as many cancer therapies target rapidly proliferating cells.[45] The most cytotoxic naphthalen-1-yloxyacetamide-tethered acrylamide conjugate, 5d, was chosen in order to further assess its impact on the advancement on cell cycle in MCF-7 Br Ca cells. […] There was also a control experiment that receives no treatment. According to Flow cytometric study, naphthalen-1-yloxyacetamide-tethered acrylamide conjugate 5d treatment causes a G1 stoppage that is almost 1.4-times greater than that of the control (Fig. 4).
S4.2.3. Cell cycle analysis of compound 5d
Cell cycle analysis in MCF-7 cells was investigated using fluorescent Annexin V-FITC/ PI detection kit (BioVision EZCellTM Cell Cycle Analysis Kit Catalog #K920) by flow […]
washed twice in PBS. After that, the cells were incubated at 37 °C and 5% CO2. The […]
twice in PBS, fixed with 70% ethanol, rinsed again with PBS. Afterward, medium was stained with DNA fluorochrome PI for 15 min at 37 °C. The samples were immediately analyzed using Facs Calibur flow cytometer (Becton and Dickinson, Heidelberg, […]
S4.2.4. […]
A general note: A flow cytometer gives signals particle by particle.

The test system of assay [5] is Bax. Put plainly: Bax level assay in MCF-7 cells. The conditions noted are these: MCF-7, qRT-PCR technique (SI: ELISA kit), IC50 concentration. It counts as cell-based.
Text: (§4) Programmed cell death, or apoptosis, is a complex series of biochemical processes.[50] Pro-apoptotic proteins include Bad, Bax, Bid and Bim, while anti-apoptotic members include Bcl-2 and Bc-LXI.[51,52] The anti-apoptotic proteins prevent cytochrome-c from release, which inhibits apoptosis, while pro-apoptotic members activate the release of cytochrome-c.[53] When there is a higher ratio of pro-apoptotic proteins than anti-apoptotic ones, the outer mitochondrial membrane becomes permeable leading to a cascade of events.[54] The cytochrome-c is released, which activates caspase 9, which in turn triggers caspase 3, which triggers apoptotic processes.[55] […] According to the data, the tested compound's Bax gen level increased noticeably compared with control. […]
as §1, §2, §3

In assay [6] the test system is Bcl-2. Put plainly: Bcl-2 level assay in MCF-7 cells. The conditions noted are these: MCF-7, qRT-PCR technique (SI: ELISA kit), IC50 concentration. The assay is classed as cell-based.
Text: as §4, §1, §2, §3

Assay [7] deals with MCF-7 Br Ca cells. Briefly: FITC-Annexin V/PI apoptosis assay. It counts as cell-based. As to conditions: MCF-7, 48 h.
In assay [8] the target is aromatase. Set-up: method as in PMID 31416738. As to conditions: cited from earlier work.
The mark [9] stands for this setting: Homo sapiens, MCF7, read-out: IC50 MCF-7, MTT, MCF-7 Br Ca cell line, mean ± SD (n = 3).

Turning to `O=C(COc1cccc2ccccc12)NNC(=O)/C(=C/c1ccc(Cl)cc1)NC(=O)c1ccccc1` [5a, (Z)-N-(1-(4-Chlorophenyl)-3-(2-(2-(naphthalen-1-yloxy)acetyl)hydrazineyl)-3-oxoprop-1-en-2-yl)benzamide], the IC50 in assay [1] (setting [9]) was 51.8 ± 1.51 µM.

Turning to `O=C(COc1cccc2ccccc12)NNC(=O)/C(=C/c1ccc(Br)cc1)NC(=O)c1ccccc1` [5b, (Z)-N-(1-(4-Bromophenyl)-3-(2-(2-(naphthalen-1-yloxy)acetyl)hydrazineyl)-3-oxoprop-1-en-2-yl)benzamide], the IC50 in assay [1] (setting [9]) was found to be 30.7 ± 1.18 µM.

Consider `O=C(COc1cccc2ccccc12)NNC(=O)/C(=C/c1ccc([N+](=O)[O-])cc1)NC(=O)c1ccccc1` [5c, (Z)-N-(3-(2-(2-(Naphthalen-1-yloxy)acetyl)hydrazineyl)-1-(4-nitrophenyl)-3-oxoprop-1-en-2-yl)benzamide], for which the IC50 in assay [2] was determined as 0.143 µM.

As to `COc1ccc(/C=C(\NC(=O)c2ccccc2)C(=O)NNC(=O)COc2cccc3ccccc23)cc1` [5d, (Z)-N-(1-(4-methoxyphenyl)-3-(2-(2-(naphthalen-1-yloxy)acetyl)hydrazineyl)-3-oxoprop-1-en-2-yl)benzamide], the IC50 in assay [1] (setting [9]) was 3.03 µM; in assay [1] (read-out: IC50 MCF-7, MTT, MCF-7 Br Ca cell line, mean ± SD (n = 3)) it was 2.33 ± 0.1 µM; in assay [2] it was 0.078 µM. In assay [3], the “caspase 9 level fold vs negative control” value was determined as 8.2 fold. Further, the “G1 stoppage relative to control” value in assay [4] was approximately 1.4 times. The “Bax level fold vs untreated MCF-7 cells” value in assay [5] turned out to be 4.0 fold. In addition, in assay [6], the “Bcl-2 gene level factor vs negative control” value came out at 0.3. The “early apoptosis fold increase vs control” value in assay [7] turned out to be 33.6 fold. The “late apoptosis fold increase vs control” value in assay [7] is listed as 42.0 fold. The “late apoptotic cells percentage” value in assay [7] (IC50 concentration, control untreated 0.14%) came to 5.88%. This compound displayed an early apoptosis percentage in assay [7] (IC50 concentration, no treatment control 0.57%) of 19.17%.

Compound `CN(C)c1ccc(/C=C(\NC(=O)c2ccccc2)C(=O)NNC(=O)COc2cccc3ccccc23)cc1` [5e, (Z)-N-(1-(4-(Dimethylamino)phenyl)-3-(2-(2-(naphthalen-1-yloxy)acetyl)hydrazineyl)-3-oxoprop-1-en-2-yl)benzamide] gave a half-inhibitory concentration (IC50) in assay [2] of 0.093 µM.

For the compound `COc1ccc(/C=C(\NC(=O)c2ccccc2)C(=O)NNC(=O)COc2cccc3ccccc23)cc1OC` [5f, (Z)-N-(1-(3,4-Dimethoxyphenyl)-3-(2-(2-(naphthalen-1-yloxy)acetyl)hydrazineyl)-3-oxoprop-1-en-2-yl)benzamide], the IC50 in assay [1] (setting [9]) stood at 28.7 ± 1.45 µM.

Turning to `O=C(COc1cccc2ccccc12)NNC(=O)/C(=C/c1cc(Br)c(O)c(Br)c1)NC(=O)c1ccccc1` [5g, (Z)-N-(1-(3,5-Dibromo-4-hydroxyphenyl)-3-(2-(2-(naphthalen-1-yloxy)acetyl)hydrazineyl)-3-oxoprop-1-en-2-yl)benzamide], the IC50 in assay [1] (setting [9]) was found to be 18.5 ± 1.26 µM.

With `COc1ccc(/C=C(\NC(=O)c2ccccc2)C(=O)NNC(=O)COc2cccc3ccccc23)c(OC)c1OC` [5h, (Z)-N-(3-(2-(2-(Naphthalen-1-yloxy)acetyl)hydrazineyl)-3-oxo-1-(2,3,4-trimethoxyphenyl)prop-1-en-2-yl)benzamide], the IC50 in assay [1] (setting [9]) stood at 25.9 ± 1.41 µM.

With `COc1cc(/C=C(\NC(=O)c2ccccc2)C(=O)NNC(=O)COc2cccc3ccccc23)cc(OC)c1OC` [5i, (Z)-N-(3-(2-(2-(Naphthalen-1-yloxy)acetyl)hydrazineyl)-3-oxo-1-(3,4,5-trimethoxyphenyl)prop-1-en-2-yl)benzamide], in assay [1] (setting [9]), the half-maximal inhibitory concentration (IC50) amounted to 16.9 ± 0.82 µM.

`COc1ccc(C(=O)N/C(=C\c2cc(OC)c(OC)c(OC)c2)C(=O)NNC(=O)COc2cccc3ccccc23)cc1` [5j, (Z)-4-Methoxy-N-(3-(2-(2-(naphthalen-1-yloxy)acetyl)hydrazineyl)-3-oxo-1-(3,4,5-trimethoxyphenyl)prop-1-en-2-yl)benzamide]: in assay [1] (setting [9]), the IC50 was 21.2 ± 0.92 µM.

Consider `O=C(COc1cccc2ccccc12)NNC(=O)/C(=C/c1ccco1)NC(=O)c1ccccc1` [6a, (Z)-N-(1-(Furan-2-yl)-3-(2-(2-(naphthalen-1-yloxy)acetyl)hydrazineyl)-3-oxoprop-1-en-2-yl)benzamide], for which, in assay [1] (setting [9]), the IC50 is 9.18 ± 0.66 µM.

Take `COc1ccc(C(=O)N/C(=C\c2ccco2)C(=O)NNC(=O)COc2cccc3ccccc23)cc1` [6b, (Z)-N-(1-(Furan-2-yl)-3-(2-(2-(naphthalen-1-yloxy)acetyl)hydrazineyl)-3-oxoprop-1-en-2-yl)-4-methoxybenzamide]: the IC50 in assay [1] (setting [9]) was found to be 11.5 ± 0.76 µM.

For the compound `O=S(=O)(NCc1cccc(CNS(=O)(=O)c2ccc3ccccc3c2)c1)c1ccc2ccccc2c1` [IV], the half-inhibitory concentration (IC50) in assay [8] is 0.21 µM.

As a reminder, the IC50 is the midpoint of a concentration-inhibition curve.
